Measurements: ChEMBL document CHEMBL3585290, “Synthesis and biological evaluation of novel bivalent -carbolines as potential antitumor agents” (Medchemcomm, 2014)

Assays:
KB = assay: Cytotoxicity against human KB cells after 48 hrs by MTT assay; type: functional, cell-based
[1] = Cytotoxicity against human BGC823 cells after 48 hrs by MTT assay; type: functional, cell-based; conditions: BGC-823, 48 h
769-P = assay: Cytotoxicity against human 769-P cells after 48 hrs by MTT assay; type: functional, cell-based
SK-OV-3 = assay: Cytotoxicity against human SKOV3 cells after 48 hrs by MTT assay; type: functional, cell-based; conditions: SK-OV-3, 48 h
A-375 = assay: Cytotoxicity against human A375 cells after 48 hrs by MTT assay; type: functional, cell-based; conditions: A-375, 48 h
[2] = Acute toxicity in ip dosed C57BL/6 mouse measured for 14 days; type: organism-based; conditions: in vivo
[3] = tested on: Lewis lung carcinoma cell line; assay: Antitumor activity against mouse LLC cells implanted in mouse assessed as tumor growth inhibition at 76.9 umol/kg, ip qd administered for 7 days starting 24 hrs post tumor implantation measured after day 21 relative to control; type: functional; conditions: read-out: TGI
CT26 = assay: Antitumor activity against mouse CT26 cells implanted in mouse assessed as tumor growth inhibition at 76.9 umol/kg, ip qd administered for 7 days starting 24 hrs post tumor implantation measured after day 21 relative to control; type: functional; conditions: read-out: TGI

| Compound | IC50 (KB) | IC50 [1] | IC50 (769-P) | IC50 (SK-OV-3) | IC50 (A-375) | LD50 at 336 h [2] | inhibition in vivo at 76.9 µmol/kg [3] | inhibition in vivo at 76.9 µmol/kg (CT26) |
| --- | --- | --- | --- | --- | --- | --- | --- | --- |
| Cc1nc(C(=O)OCCCCCCOC(=O)c2cc3c4ccccc4n(C)c3c(C)n2)cc2c3ccccc3n(C)c12 | 165 µM | > 200 µM | 28.3 µM | > 200 µM | 82.6 µM |  |  |  |
| CCCCn1c2ccccc2c2cc(C(=O)OCCCCCCCCOC(=O)c3cc4c5ccccc5n(CCCC)c4cn3)ncc21 | 19.8 µM | 68.9 µM | 210 µM | 124 µM | 146 µM |  |  |  |
| O=C(OCCCCCCOC(=O)c1cc2c3ccccc3n(Cc3ccccc3)c2cn1)c1cc2c3ccccc3n(Cc3ccccc3)c2cn1 | 15.7 µM | 164 µM | 46.8 µM | 27.8 µM | > 200 µM |  |  |  |
| O=C(OCCCCCCCCOC(=O)c1cc2c3ccccc3n(Cc3ccccc3)c2cn1)c1cc2c3ccccc3n(Cc3ccccc3)c2cn1 | 162 µM | > 200 µM | 68.6 µM | > 200 µM | > 200 µM |  |  |  |
| CCCCn1c2ccccc2c2cc(C(=O)OCCCCCCCCCOC(=O)c3cc4c5ccccc5n(CCCC)c4cn3)ncc21 | 26.4 µM | > 200 µM | 115 µM | > 200 µM | 89.6 µM |  |  |  |
| Cc1nc(C(=O)OCCCOC(=O)c2cc3c4ccccc4n(C)c3c(C)n2)cc2c3ccccc3n(C)c12 | 18.4 µM | 19.5 µM | 16.3 µM | 21 µM | 16.6 µM | 385 µmol/kg | 28.1% | 23.6% |
| CCn1c2ccccc2c2cc(C(=O)OCCCCCCOC(=O)c3cc4c5ccccc5n(CC)c4c(-c4cc(OC)c(OC)c(OC)c4)n3)nc(-c3cc(OC)c(OC)c(OC)c3)c21 | 20.7 µM | 159 µM | 10.9 µM | 47.4 µM | 40.4 µM |  |  |  |
| Cc1nc(C(=O)OCCCCCCOC(=O)c2cc3c4ccccc4n(CCCc4ccccc4)c3c(C)n2)cc2c3ccccc3n(CCCc3ccccc3)c12 | > 200 µM | > 200 µM | 21.8 µM | 73.4 µM | > 200 µM |  |  |  |
| CCn1c2ccccc2c2cc(C(=O)OCCCCCCOC(=O)c3cc4c5ccccc5n(CC)c4c(C)n3)nc(C)c21 | 16.5 µM | > 200 µM | 43.1 µM | > 200 µM | 32.9 µM |  |  |  |
| CCCCn1c2ccccc2c2cc(C(=O)OCCCCCCCOC(=O)c3cc4c5ccccc5n(CCCC)c4c(C)n3)nc(C)c21 | > 200 µM | > 200 µM | 95.9 µM | 71.5 µM | > 200 µM |  |  |  |
| O=C(OCCCCCCCCCOC(=O)c1cc2c3ccccc3n(Cc3cccc(Cl)c3)c2cn1)c1cc2c3ccccc3n(Cc3cccc(Cl)c3)c2cn1 | 71.2 µM | > 200 µM | 145 µM | > 200 µM | > 200 µM |  |  |  |
| Cc1nc(C(=O)OCCCCCCOC(=O)c2cc3c4ccccc4n(Cc4ccccc4)c3c(C)n2)cc2c3ccccc3n(Cc3ccccc3)c12 | 112 µM | > 200 µM | 64.7 µM | > 200 µM | > 200 µM |  |  |  |
| Cc1nc(C(=O)OCCCCCOC(=O)c2cc3c4ccccc4n(Cc4ccccc4)c3c(C)n2)cc2c3ccccc3n(Cc3ccccc3)c12 | 42.4 µM | > 200 µM | 72.4 µM | > 200 µM | 125 µM |  |  |  |
| CCCCn1c2ccccc2c2cc(C(=O)OCCCCCCCCCCOC(=O)c3cc4c5ccccc5n(CCCC)c4cn3)ncc21 | 45.2 µM | 168 µM | 89.2 µM | > 200 µM | > 200 µM |  |  |  |
| CCCCn1c2ccccc2c2cc(C(=O)OCCCCCCCCCCOC(=O)c3cc4c5ccccc5n(CCCC)c4c(C)n3)nc(C)c21 | > 200 µM | > 200 µM | 114 µM | > 200 µM | 42 µM |  |  |  |
| O=C(OCCCCCCCOC(=O)c1cc2c3ccccc3n(CCCc3ccccc3)c2cn1)c1cc2c3ccccc3n(CCCc3ccccc3)c2cn1 | 78.9 µM | > 200 µM | 43.5 µM | > 200 µM | 143 µM |  |  |  |
| Cc1nc(C(=O)OCCCCCCCCCCOC(=O)c2cc3c4ccccc4n(C)c3c(C)n2)cc2c3ccccc3n(C)c12 | 198 µM | > 200 µM | 42.9 µM | > 200 µM | 125 µM |  |  |  |
| CCCCn1c2ccccc2c2cc(C(=O)OCCCCOC(=O)c3cc4c5ccccc5n(CCCC)c4cn3)ncc21 | 89 µM | 116 µM | 42.6 µM | 123 µM | > 200 µM |  |  |  |
| COc1cc(-c2nc(C(=O)OCCCCCCOC(=O)c3cc4c5ccccc5n(CCCc5ccccc5)c4c(-c4cc(OC)c(OC)c(OC)c4)n3)cc3c4ccccc4n(CCCc4ccccc4)c23)cc(OC)c1OC | > 200 µM | 168 µM | 118 µM | > 200 µM | 134 µM |  |  |  |
| CCn1c2ccccc2c2cc(C(=O)OCCCCCCOC(=O)c3cc4c5ccccc5n(CC)c4c(-c4ccc(OC)cc4)n3)nc(-c3ccc(OC)cc3)c21 | 89.2 µM | > 200 µM | 65.9 µM | > 200 µM | > 200 µM |  |  |  |
| Cc1nc(C(=O)OCCCCCCCCCOC(=O)c2cc3c4ccccc4n(CCCc4ccccc4)c3c(C)n2)cc2c3ccccc3n(CCCc3ccccc3)c12 | 50.7 µM | > 200 µM | 108 µM | > 200 µM | > 200 µM |  |  |  |
| CCn1c2ccccc2c2cc(C(=O)OCCCCCCCCOC(=O)c3cc4c5ccccc5n(CC)c4c(C)n3)nc(C)c21 | > 200 µM | > 200 µM | 21.7 µM | 86.4 µM | 86.3 µM |  |  |  |
| O=C(OCCCOC(=O)c1cc2c3ccccc3n(CCCc3ccccc3)c2cn1)c1cc2c3ccccc3n(CCCc3ccccc3)c2cn1 | 72.4 µM | > 200 µM | 95.6 µM | > 200 µM | > 200 µM |  |  |  |
| CCn1c2ccccc2c2cc(C(=O)OCCCCCCCCCOC(=O)c3cc4c5ccccc5n(CC)c4c(C)n3)nc(C)c21 | 56.9 µM | > 200 µM | 10.3 µM | > 200 µM | > 200 µM |  |  |  |
| CCCCn1c2ccccc2c2cc(C(=O)OCCCCCCOC(=O)c3cc4c5ccccc5n(CCCC)c4c(C)n3)nc(C)c21 | 54.6 µM | > 200 µM | 60.5 µM | > 200 µM | > 200 µM |  |  |  |
| CCCCn1c2ccccc2c2cc(C(=O)OCCCCCOC(=O)c3cc4c5ccccc5n(CCCC)c4cn3)ncc21 | 53.9 µM | > 200 µM | 32.9 µM | > 200 µM | > 200 µM |  |  |  |
| O=C(OCCCCCCOC(=O)c1cc2c3ccccc3n(Cc3cccc(Cl)c3)c2cn1)c1cc2c3ccccc3n(Cc3cccc(Cl)c3)c2cn1 | 46.9 µM | > 200 µM | 21.9 µM | 19 µM | > 200 µM |  |  |  |
| O=C(OCCCCOC(=O)c1cc2c3ccccc3n(Cc3ccccc3)c2cn1)c1cc2c3ccccc3n(Cc3ccccc3)c2cn1 | > 200 µM | 43.6 µM | 45.4 µM | > 200 µM | 7.9 µM |  |  |  |
